Values joined by “and” are separate entries in the source; they are usually repeats but may differ in a detail not shown here. Equal entries are not always repeated. Inconclusive results and toxic doses are left out.
Tested on: P388 leukemia ip, CD2F1 mice, survival T/C
Assay: NCI In Vivo Anticancer Drug Screen. Data for tumor model P388 Leukemia (intraperitoneal) in CD2F1 (CDF1) mice
Settings: endpoint: median survival time, higher = longer survival
Method in brief: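 Mice carrying the transplanted tumor received test compound or vehicle. Survival was recorded in each group, and the value is the treated-group measurement divided by that of the vehicle-treated control group.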

[1] = dose: 25.0 mg/kg/injection, schedule: Q01DX009 (ip), vehicle: saline with Tween-80
[2] = dose: 50.0 mg/kg/injection, schedule: Q01DX009 (ip), vehicle: saline with Tween-80
[3] = dose: 100.0 mg/kg/injection, schedule: Q01DX009 (ip), vehicle: saline with Tween-80
[4] = dose: 50.0 mg/kg/injection, schedule: Q01DX005 (ip), vehicle: saline with Tween-80
[5] = dose: 200.0 mg/kg/injection, schedule: Q01DX005 (ip), vehicle: saline with Tween-80
[6] = dose: 50.0 mg/kg/injection, schedule: Q01DX005 (ip), vehicle: Klucel (hydroxypropylcellulose) (HPC)
[7] = dose: 100.0 mg/kg/injection, schedule: Q01DX005 (ip), vehicle: Klucel (hydroxypropylcellulose) (HPC)
[8] = dose: 200.0 mg/kg/injection, schedule: Q01DX005 (ip), vehicle: Klucel (hydroxypropylcellulose) (HPC)
[9] = dose: 60.0 mg/kg/injection, schedule: Q01DX005 (ip), vehicle: saline with Tween-80
[10] = dose: 120.0 mg/kg/injection, schedule: Q01DX005 (ip), vehicle: saline with Tween-80
[11] = dose: 240.0 mg/kg/injection, schedule: Q01DX005 (ip), vehicle: saline with Tween-80
[12] = dose: 200.0 mg/kg/injection, schedule: Q01DX009 (ip), vehicle: saline with Tween-80

With Cc1ccc(C)c2c1CCC2C (stereo not drawn) the T/C [1] was 101 % of control and 110 % of control, the T/C [2] was 111 % of control and 116 % of control and the T/C [3] was 104 % of control and 114 % of control.

CCCCCCCC/C=C\CCCCCCCC(=O)OC/C=C/COC(=O)c1ccccc1 was tested, and the T/C (dose: 100.0 mg/kg/injection, schedule: Q04DX003 (ip), vehicle: Klucel (hydroxypropylcellulose) (HPC)) was 106 % of control, the T/C (dose: 200.0 mg/kg/injection, schedule: Q04DX003 (ip), vehicle: Klucel (hydroxypropylcellulose) (HPC)) was 99 % of control and the T/C (dose: 400.0 mg/kg/injection, schedule: Q04DX003 (ip), vehicle: Klucel (hydroxypropylcellulose) (HPC)) was 106 % of control.

With CN1N=Nc2ccccc2C1(O)c1ccc(F)cc1 (stereo not drawn) the T/C [4] was 104 % of control, the T/C (dose: 100.0 mg/kg/injection, schedule: Q01DX005 (ip), vehicle: saline with Tween-80) was 104 % of control and the T/C [5] was 107 % of control.

O=[As]O was tested, and the T/C (dose: 0.5 mg/kg/injection, schedule: Q01DX010 (ip), vehicle: saline with Tween-80) was 100 % of control, the T/C (dose: 1.0 mg/kg/injection, schedule: Q01DX010 (ip), vehicle: saline with Tween-80) was 109 % of control and the T/C (dose: 2.0 mg/kg/injection, schedule: Q01DX010 (ip), vehicle: saline with Tween-80) was 109 % of control.

Cc1cc2c(cc1C)NC1C(=O)C(c3cccc([N+](=O)[O-])c3)OC1=N2 (stereo not drawn) was tested, and the T/C [6] was 111 % of control, the T/C [7] was 90 % of control and the T/C [8] was 87 % of control.

C=CCNCC(O)C(F)(F)C(F)(F)C(F)(F)C(F)(F)C(F)(F)C(F)(F)F (stereo not drawn) was tested, and the T/C [9] was 101 % of control, the T/C [10] was 101 % of control and the T/C [11] was 109 % of control.

For CCCCCCCCCC(=O)OC(C)C(=O)N(CCCC)CCCC (stereo not drawn), the T/C [3] was 110 % of control, the T/C [12] was 102 % of control and the T/C (dose: 400.0 mg/kg/injection, schedule: Q01DX009 (ip), vehicle: saline with Tween-80) was 106 % of control.

With CC1C=CCC(C)(C)C1 (stereo not drawn) the T/C (dose: 100.0 mg/kg/injection, schedule: Q01DX009 (ip), vehicle: Klucel (hydroxypropylcellulose) (HPC)) was 101 % of control, the T/C (dose: 100.0 mg/kg/injection, schedule: Q04DX003 (ip), vehicle: saline) was 88 % of control and the T/C (dose: 200.0 mg/kg/injection, schedule: Q01DX009 (ip), vehicle: Klucel (hydroxypropylcellulose) (HPC)) was 106 % of control. The T/C (dose: 200.0 mg/kg/injection, schedule: Q04DX003 (ip), vehicle: saline) was 96 % of control and the T/C (dose: 400.0 mg/kg/injection, schedule: Q04DX003 (ip), vehicle: saline) was 92 % of control.

With CN(C)CCNc1cccc2c1C(=O)c1cccc(NCCN(C)C)c1C2=O the T/C (dose: 1.88 mg/kg/injection, schedule: Q01DX009 (ip), vehicle: water) was 99 % of control, the T/C (dose: 3.75 mg/kg/injection, schedule: Q01DX009 (ip), vehicle: saline) was 101 % of control and the T/C (dose: 3.75 mg/kg/injection, schedule: Q01DX009 (ip), vehicle: water) was 98 % of control. For the same compound, the T/C (dose: 7.5 mg/kg/injection, schedule: Q01DX009 (ip), vehicle: saline) was 102 % of control, the T/C (dose: 7.5 mg/kg/injection, schedule: Q01DX009 (ip), vehicle: water) was 110 % of control and the T/C (dose: 15.0 mg/kg/injection, schedule: Q01DX009 (ip), vehicle: saline) was 98 % of control. For the same compound, the T/C (dose: 15.0 mg/kg/injection, schedule: Q01DX009 (ip), vehicle: water) was 108 % of control and the T/C (dose: 30.0 mg/kg/injection, schedule: Q01DX009 (ip), vehicle: water) was 106 % of control.

Nc1nc2nc(N)[nH]c2c(=O)[nH]1 was tested, and the T/C (dose: 12.5 mg/kg/injection, schedule: Q01DX005 (ip), vehicle: saline with Tween-80) was 95 % of control, the T/C (dose: 25.0 mg/kg/injection, schedule: Q01DX005 (ip), vehicle: saline with Tween-80) was 100 % of control and 105 % of control and 106 % of control and the T/C [4] was 100 % of control and 104 % of control and 113 % of control. The T/C [5] was 107 % of control.

O=C1OC(O)C(Cl)=C1Cl (stereo not drawn) was tested, and the T/C (dose: 0.79 mg/kg/injection, schedule: Q01DX005 (ip), vehicle: saline with Tween-80) was 111 % of control, the T/C (dose: 1.56 mg/kg/injection, schedule: Q01DX005 (ip), vehicle: saline with Tween-80) was 112 % of control and the T/C (dose: 3.12 mg/kg/injection, schedule: Q01DX005 (ip), vehicle: saline with Tween-80) was 114 % of control. The T/C (dose: 6.25 mg/kg/injection, schedule: Q01DX005 (ip), vehicle: saline with Tween-80) was 120 % of control.

In the case of CCOC(=O)C1(NC(=O)Nc2ccccc2)CCCCC1, the T/C [6] is reported as 100 % of control, the T/C [7] is reported as 98 % of control and the T/C [8] is reported as 104 % of control.

CC1C(=O)OC2C1CCC1(C)C3(C)C(=O)C=CC213 (stereo not drawn) was tested, and the T/C (dose: 15.0 mg/kg/injection, schedule: Q01DX005 (ip), vehicle: Klucel (hydroxypropylcellulose) (HPC)) was 97 % of control, the T/C (dose: 30.0 mg/kg/injection, schedule: Q01DX005 (ip), vehicle: Klucel (hydroxypropylcellulose) (HPC)) was 101 % of control and the T/C (dose: 60.0 mg/kg/injection, schedule: Q01DX005 (ip), vehicle: Klucel (hydroxypropylcellulose) (HPC)) was 104 % of control and 93 % of control.

For O=C(CBr)N(O)c1ccccc1OCc1ccccc1, the T/C (dose: 6.25 mg/kg/injection, schedule: Q01DX001 (ip), vehicle: saline) was 116 % of control, the T/C (dose: 12.5 mg/kg/injection, schedule: Q01DX001 (ip), vehicle: saline) was 98 % of control and the T/C (dose: 25.0 mg/kg/injection, schedule: Q01DX001 (ip), vehicle: saline) was 104 % of control.

COC(=O)C1(c2ccc(OC)cc2)NC(c2ccccc2)C2C(=O)N(c3ccc(OC)cc3)C(=O)C21 (stereo not drawn) was tested, and the T/C [9] was 95 % of control, the T/C [10] was 96 % of control and the T/C [11] was 89 % of control.

In the case of C=C(C)C(=NC(C)(C)C)Nc1ccccc1Cl, the T/C [1] is reported as 101 % of control and 90 % of control, the T/C [2] is reported as 100 % of control and 119 % of control and 93 % of control and the T/C [3] is reported as 111 % of control and 115 % of control and 90 % of control. For the same compound, the T/C [12] was 115 % of control and 98 % of control.

CCCCCCCCCCCCSC1=CC(=O)C(OC)=C(OC)C1=O was tested, and the T/C (dose: 0.78 mg/kg/injection, schedule: Q01DX009 (ip), vehicle: other) was 101 % of control, the T/C (dose: 1.56 mg/kg/injection, schedule: Q01DX009 (ip), vehicle: other) was 108 % of control and the T/C (dose: 3.13 mg/kg/injection, schedule: Q01DX009 (ip), vehicle: other) was 102 % of control. For the same compound, the T/C (dose: 6.25 mg/kg/injection, schedule: Q01DX009 (ip), vehicle: other) was 108 % of control, the T/C (dose: 6.25 mg/kg/injection, schedule: Q01DX030 (ip), vehicle: saline with Tween-80) was 101 % of control and the T/C (dose: 10.0 mg/kg/injection, schedule: Q01DX030 (ip), vehicle: saline with Tween-80) was 108 % of control. For the same compound, the T/C (dose: 12.5 mg/kg/injection, schedule: Q01DX009 (ip), vehicle: other) was 110 % of control, the T/C (dose: 12.5 mg/kg/injection, schedule: Q01DX030 (ip), vehicle: saline with Tween-80) was 104 % of control and 108 % of control and 121 % of control and the T/C (dose: 25.0 mg/kg/injection, schedule: Q01DX009 (ip), vehicle: other) was 118 % of control. For the same compound, the T/C (dose: 25.0 mg/kg/injection, schedule: Q01DX030 (ip), vehicle: saline with Tween-80) was 105 % of control.

With COc1ccc2nc3cc(Cl)ccc3c(NCCCN3CCCC3)c2n1 the T/C (dose: 12.5 mg/kg/injection, schedule: Q01DX009 (ip), vehicle: water) was 102 % of control and the T/C (dose: 25.0 mg/kg/injection, schedule: Q01DX009 (ip), vehicle: water) was 102 % of control.

With COc1ccc(-c2cn3c([nH]c(=O)c4ccccc43)c2C#N)cc1 the T/C (dose: 15.0 mg/kg/injection, schedule: Q01DX005 (ip), vehicle: saline with Tween-80) was 86 % of control, the T/C (dose: 30.0 mg/kg/injection, schedule: Q01DX005 (ip), vehicle: saline with Tween-80) was 88 % of control and the T/C [9] was 86 % of control.

In the case of CCCC(=O)OCC1OC(n2cnc3c(=S)nc(N)[nH]c32)C(OC(=O)CCC)C1OC(=O)CCC (stereo not drawn), the T/C (dose: 1.25 mg/kg/injection, schedule: Q04DX003 (ip), vehicle: saline with Tween-80) is reported as 100 % of control, the T/C (dose: 2.5 mg/kg/injection, schedule: Q04DX003 (ip), vehicle: saline with Tween-80) is reported as 104 % of control and the T/C (dose: 5.0 mg/kg/injection, schedule: Q04DX003 (ip), vehicle: saline with Tween-80) is reported as 113 % of control. For the same compound, the T/C (dose: 10.0 mg/kg/injection, schedule: Q04DX003 (ip), vehicle: saline with Tween-80) was 155 % of control, the T/C (dose: 20.0 mg/kg/injection, schedule: Q04DX003 (ip), vehicle: saline with Tween-80) was 165 % of control and the T/C [1] was 122 % of control. For the same compound, the T/C (dose: 25.0 mg/kg/injection, schedule: Q04DX003 (ip), vehicle: saline with Tween-80) was 150 % of control, the T/C [2] was 90 % of control and the T/C (dose: 50.0 mg/kg/injection, schedule: Q04DX003 (ip), vehicle: saline with Tween-80) was 116 % of control. For the same compound, the T/C (dose: 200.0 mg/kg/injection, schedule: Q04DX003 (ip), vehicle: saline with Tween-80) was 118 % of control.

From PubChem BioAssay AID330 (DTP/NCI, 2004)
